Experimental data from US20090233999A1, “COMPOSITIONS AND THERAPEUTIC METHODS INVOLVING ISOFLAVONES AND ANALOGUES THEREOF” (NOVOGEN RESEARCH PTY LTD, priority 1999, published 2009).

Experiments:
P-cadherin = experiment: UVB psoriasis model: immunohistochemical detection of P-cadherin; format: in vivo, mouse; conditions: 20 μM topical
Protocol: Groups of three Skh:hr-1 mice were exposed to 3×MEdD of UVB radiation, with and without topical treatment with 20 μM Cpd. 18, and were euthanased before and at 24, 48, 72 and 96 h after irradiation, and mid-dorsal skin samples were taken for histological fixation. The samples were fixed for 6 h in Histochoice (Amresco Solon, Ohio), then processed overnight in an automated formalin-ethanol-based system (Tissue Tek VIP; Bayer Diagnostics, Ferntree Gully, Australia) and embedded into paraffin blocks. Sections of 4 μm were cut onto silane-coated slides, de-waxed and rehydrated using xylene followed by graded aqueous ethanol solutions to PBS. Endogenous peroxidase activity of the sections was quenched with 3% H2O2 in methanol for 10 min at room temperature and washed 3 times with PBS. The sections were then blocked with 10% skim milk in PBS for 40 min at room temperature. […]
The stained sections were examined by light microscopy at 20× magnification and images were captured digitally with a Sony Hyper HAD colour video camera (Sony, Tokyo, Japan). Stain intensity was analysed using a Leica Q500 MC image processing and analysis system (Leica, Cambridge, UK) and semi-quantitated in arbitrary image analysis units as the average intensity of 15 sequential fields across the skin section for each of 3 mice per treatment group. […]

INFγ = INFγ production by murine splenocytes; format: cell-based, mouse; conditions: 10 μM; Con A
Protocol: Male Skh-1 (hairless) mice, approximately six weeks old were killed by cervical dislocation. Single cell suspensions were made from the spleen and erythrocytes were lysed in buffer (0.14M NH4Cl, 17 mM Tris, pH 7.2). The remaining splenocytes were cultured in RPMI-1640 (Gibco) supplemented with 10% (v:v) FBS, 2 mM L-glutamine, pen/strep and 50 μM 2-mercaptoethanol. Splenocytes were added to quadruplicate wells containing either the T cell mitogen concanavalin A (Con A, Sigma-Aldrich—0. 4 μg/well), the B-cell mitogen LPS (Sigma-Aldrich—1 μg/well) or no mitogen, as well as test compound at a concentration of 10 μM in DMSO. Samples were analysed after a 3 day incubation at 37° C. in 5% CO2 in air. Cell viability was assessed by adding MTT to each well, incubating for a further 4 hrs and then developing colour with 0.04N HCl in isopropanol. Supernatant samples were frozen at −80° C. and IL-6, IFN-γ and TNFα were detected in triplicate using ELISA kits (BD Biosciences).

Structure (SMILES) | P-cadherin expression in the skin, treatment alone (P-cadherin; without UVB) | reduction of UVB-induced P-cadherin positive cells (P-cadherin; 72 h, Skh:hr-1) | INFγ synthesis by T cells (INFγ)
COc1ccc(C2=Cc3ccc(O)cc3OC2)cc1OC [Cpd. 18, 7-Hydroxy-3′,4′-dimethoxyisoflav-3-ene] | no effect | approximately 50% | 
Oc1ccc(C2=Cc3ccc(O)c(Br)c3OC2)cc1 [Cpd. 20, 4′,7-Dihydroxy-8-bromoisoflav-3-ene] |  |  | marked reduction
